Here are results for one compound from patent US6248716A, “Peptide, a method for its preparation and a pharmaceutical composition containing the peptide” (priority 1999, dated 2001).

A short description of data set [1]: Weight gain in chickens (cockerels). It is filed as in vivo, P-46 breed. How it is done:
The effect of the peptide on weight gain in chickens was examined. Tests were conducted on chickens of egg oriented productivity, "P-46" breed. 24 hour old cockerels were divided in 5 groups, 13 cockerels in each--one control group and 4 test groups.
The birds were given a full diet till they reached the age of 10 weeks. 100% of birds in both the control and test groups survived.
After 10 weeks, the cockerels were killed and examined.
Quality of the cockerel meat was tested on an organoleptic basis.

The next data set is described as follows: Weight gain in pigs. It is filed as in vivo. How it is done:
The purpose of the first stage of testing was to determine the optimal dose of the peptide necessary to achieve the desired weight gain and the most beneficial manner of administering the peptide. The first stage of testing was conducted over a period of 100 days.
The pigs were divided into seven groups of ten animals each. The animals were all aged 4-5 months, and weighed about the same. There was one control group and six test groups. All the groups were given an ordinary diet.
Test groups 2, 3, and 4 were administered the peptide (1.0, 5.0, 10.0 μg kg/body weight) with feed, for 20 days each month with a 10 day break. Test groups 5, 6, and 7 were administered the peptide by injections of 0.01% water solutions for five days each month with a 25 day break (0.1, 0.5 and 1.0 μg per body weight).
Physiological examinations and biochemical tests were carried out during the experiment. The pigs were weighed on the 30th, 65th and 100th days of the experiment. […] Administration of 1 μg per 1 kg of body weight by intramuscular injections achieved a weight gain 18% higher than the control group (group 6).
The second stage of the experiment lasted 95 days, after which the animals were killed. The second stage of the experiment was carried out only with groups three and six, in order to determine which method of administration of the peptide produced the best results. […]

A short description of data set [2]: Weight gain in young bulls. Format: in vivo. As to conditions: during the experiment. How it is done: There were 7 groups of animals having approximately the same weight, with 12 young bulls in each group. The age of the animals was 2 months. There were 6 test groups and one control. The test animals were administered Sedatin with water before they were fed or as intramuscular injections in the amounts shown in Table 12. All animals received the same diet and were kept in the same conditions. Two animals in the control group fell ill during the experiment, and were replaced by analogs.
Two groups, one control and one test, were chosen for the second stage of the experiment. The test group was administered the peptide mixed with feed, in the amount of 10 μg per 1 kg of body weight. The control group was not administered any of the peptide. The data was biometrically processed.

Non-standard residues stand in square brackets, D forms with d. Residues, ends and D or L forms follow the SMILES beside them.

Turning to `C[C@@H](NC(=O)[C@H](Cc1ccc(O)cc1)NC(=O)[C@@H](N)CCCNC(=N)N)C(=O)N[C@@H](Cc1ccccc1)C(=O)NCC(=O)O` [H-Arg-Tyr-D-Ala-Phe-Gly-OH] (H-RY[dA]FG-OH), the “quality of cockerel meat (colour, smell, consistency, taste), organoleptic” value in data set [1] (all groups) is on record as “the same as in the control group”. This compound also registered a birds survived in data set [1] (test groups, to age of 10 weeks) of 100%. Besides, in the data set “Weight gain in pigs”, the “biochemical and physicochemical tests” value is reported as “no deviation from the control group”; the “quality characteristics (pathological changes, decrease of fat layer, etc.)” value is listed as “No changes were observed”. Moreover, where the note is “alcohol”, the solubility in alcohol result is “slightly soluble”. For the same compound, for the setting “chloroform”, the solubility in chloroform result is given as “practically insoluble”. In addition, the solubility in water entry (water) is listed as “soluble”. For the same compound, the “temperature, pulse and breath-rate” value in data set [2] is given as “no deviation from the control group”.
